Tests used:
Assay type in all cases: in vivo, human
[1] = test system: healthy patients aged 40 to 65 years old; test: Phase 1 three-way crossover study: computerized neurocognitive test battery; conditions: for global cognition, effect size d relative to placebo / memory, effect size d relative to placebo: 0.5 mg oral
Description: (§1) A phase 1 three-way, crossover study was performed as shown in FIG. 1 on healthy patients aged 40 to 65 years old to determine dose and pharmacodynamic outcomes. Patients in the fasted state were orally administered 0.5 or 1.5 mg tilivapram or placebo in the form of an immediate release suspension. Outcomes were measured with a computerized neurocognitive test battery, resting 19 channel EEG, and cognitive task ERPs (event-related potentials). 44 patients were dosed (and used for AE analyses), of which 40 received all three doses (and used for analysis of cognitive, EEG and ERP outcomes).
Tilivapram has a wide therapeutic window in the finger tapping task as there were significant decreases in latency at both the 0.5 mg and 1.5 mg doses.
The effect of tilivapram versus placebo on cognition was examined between subgroups of the study sample differing in their global cognitive composite score at baseline. […] However, examining only participants with baseline global cognition below healthy norms (z<−0.5), the effect of 0.5 mg tilivapram relative to placebo increased to d=0.861, p=0.034. […] Examining participants with global cognition of z<−0.5, the effect on memory becomes larger and statistically significant (d=0.797, p=0.048).

[2] = test system: participants; test: Phase I open-label 2-way cross-over study of oral solution vs transdermal delivery system: related adverse events
Description: A phase I, open-label, fixed period, 2-way cross-over study was performed to establish the pharmacokinetics and safety of a transdermal delivery system containing tilivapram. In Period 1 Day 1 (P1D1), participants were dosed with 1.0 mg of tilivapram in a liquid oral solution in a fasted state. After a 7-day washout period, participants were dosed with the first set of 4 patches applied by study staff on Period 2 Day 1 (P2D1), which were then removed after 24 hours and 4 new patches applied for an additional 24 hours on Period 2 Day 2 (P2D2) for a total of 48 hours. All but one of the 15 subjects completed the study. One subject withdrew after receiving the oral solution.

[3] = test system: healthy patients aged 40 to 65 years old; test: Phase 1 three-way crossover study: resting 19 channel EEG and cognitive task ERPs; conditions: vs placebo
Description: as §1
Theta (4-8 Hz) is an EEG rhythm involving connections between the hippocampus and prefrontal cortex. Frontal midline resting theta power is elevated across a range of cognitive disorders, such as schizophrenia, ADHD, Parkinson's disease, Alzheimer's disease and mild cognitive impairment (MCI) (see Newson et al., Front Hum Neurosci., 2019, 12:521 (PMID 30687041)). Increased theta power correlates with poorer cognitive task performance. […] Tilivapram has a wide therapeutic window as there were significant decreases in theta power at both the 0.5 mg and 1.5 mg doses.
Stimulus-induced theta response, such as measured by inter-trial coherence, phase locking factor or event-related spectral perturbation, reflect the brain response during stimulus processing, is reduced in patients with schizophrenia, and the degree of reduction is correlated with the degree of cognitive impairment in these patients (Lee at al., Mol Psychiatry, 2017, 22 (11): 1585-1593, PMID 28167837; Martínez et al., Front Hum Neurosci., 2015, 9:371, PMID 26190988; Xiong et al.,Front Hum Neurosci., 2019, 13:37, PMID 30894804; Hua et al., Biol Psychiatry Cogn Neurosci Neuroimaging., 2023, 8 (12): 1186-1196, PMID: 36931469; Hochberger et al., Int. J. Psychophysiology, 2019, 145:23-29, PMID: 30586570; Wolff et al., Cerebral Cortex, 2022, 32:3441-3456: PMID: 34875019).
Evoked sensory gamma-based responses represent both basic sensory processing as well as higher cognitive functions, such as attention and memory. The onset of a stimulus triggers precisely timed local processing, evident as an increase in gamma-band intertrial phase locking. Gamma-band phase locking at ˜50 ms after stimulus onset is reduced in schizophrenia and other psychotic spectrum disorders such as bipolar disorder (see Roach et al., Schizophr Bull., 34 (5): 907-26, 2008 (PMID 18684772); Javitt et al., Neuropsychopharmacology, 45 (9): 1411-1422, 2020 (PMID 32375159)). […]

[4] = test system: healthy patients aged 40 to 65 years old; test: Phase 1 three-way crossover study: adverse events
Description: as §1
The adverse events were primarily nausea, as expected given the well-known dose-limiting effects of PDE4 inhibitors on nausea. Approximately 28% of people experienced nausea at the 1.5 mg dose, while only 2% did so at the 0.5 mg dose. […] Only one patient discontinued treatment due to an adverse event at the higher dose (1.5 mg) of tilivapram.

[5] = 0.5 and 1.5 mg oral, vs placebo
[6] = oral N=15, transdermal N=14, overall N=15

With `COc1cnc(C(=O)Nc2c(Cl)c[n+]([O-])cc2Cl)cc1OCC1CC1` [tilivapram, 4-(cyclopropylmethoxy)-N-(3,5-dichloro-1-oxidopyridin-4-yl)-5-methoxypyridine-2-carboxamide] the “global cognition, effect size d relative to placebo” value ([1]; full sample, p=0.223) was 0.274, the “memory, effect size d relative to placebo” value ([1]; full sample, p=0.359) was 0.207 and the “global cognition, effect size d relative to placebo” value ([1]; participants with baseline global cognition z<−0.5, p=0.034) was 0.861. For the same compound, the “memory, effect size d relative to placebo” value ([1]; participants with global cognition z<−0.5, p=0.048) was 0.797, the “processing speed (composite z-score of simple reaction time, choice reaction time and Eriksen flanker tasks)” value [1, 5] was “improved processing speed” and the “psychomotor speed (latency in a finger tapping task)” value [1, 5] was “improved psychomotor speed”. The “Number of participants with at least 1 TEAE” value ([2]; oral 1.0 mg fasted N=15, 4 patches x 2 days N=14, overall N=15) was 11 (73.3) n (%), the Abdominal pain [2, 6] was 0 n (%) and the Administration site erythema [2, 6] was 0 n (%). For the same compound, the Administration site pain [2, 6] was 0 n (%), the Administration site pruritus [2, 6] was 2 (13.3) n (%) and the Arthralgia [2, 6] was 0 n (%). For the same compound, the Asthenia [2, 6] was 1 (6.7) n (%), the Dermatitis acneiform [2, 6] was 0 n (%) and the Diarrhea [2, 6] was 1 (6.7) n (%). The Dizziness [2, 6] was 6 (40.0) n (%), the Dyspepsia [2, 6] was 1 (6.7) n (%) and the “Ear and labyrinth disorders” value [2, 6] was 1 (6.7) n (%). The Fatigue [2, 6] was 0 n (%), the Gastrointestinal disorders [2, 6] was 3 (20.0) n (%) and the “General disorders and administration site conditions” value [2, 6] was 2 (13.3) n (%). The Headache [2, 6] was 6 (40.0) n (%), the Insomnia [2, 6] was 0 n (%) and the Irritability [2, 6] was 0 n (%). For the same compound, the “Musculoskeletal and connective tissue disorders” value [2, 6] was 0 n (%), the Nausea [2, 6] was 3 (20.0) n (%) and the Nervous system disorders [2, 6] was 8 (53.3) n (%). For the same compound, the Neuralgia [2, 6] was 0 n (%), the “Number of TEAEs” value [2, 6] was 28 and the Psychiatric disorders [2, 6] was 0 n (%). The “Skin and subcutaneous tissue disorders” value [2, 6] was 0 n (%), the Vertigo [2, 6] was 1 (6.7) n (%) and the “theta intertrial coherence at the Cz electrode” value ([3]; 0.5 mg and 1.5 mg oral, auditory stimulus) was “increased theta intertrial coherence”. For the same compound, the “theta relative power at the Fz electrode (resting EEG)” value ([3]; 0.5 and 1.5 mg oral immediate release suspension, fasted) was “decreased theta relative power”, the “gamma-band phase locking approximately 50 ms after onset of a tone auditory stimulus” value ([3]; 0.5 and 1.5 mg oral, Pz electrode) was “increased gamma-band phase locking” and the “mismatch negativity (MMN) at the Fz electrode” value ([3]; 0.5 and 1.5 mg oral, oddball task) was “increased MMN”. The people experiencing nausea ([4]; 0.5 mg oral dose) was 2%, the dizziness and lightheadedness ([4]; 0.5 mg to 1.5 mg oral) was “substantially increased in a dose-related manner” and the “patients who discontinued treatment due to an adverse event” value ([4]; 1.5 mg oral dose) was “one”. For the same compound, the people experiencing nausea ([4]; 1.5 mg oral dose) was “Approximately 28%” and the adverse events ([4]; from the 0.5 mg dose to the 1.5 mg dose, oral) was “increased substantially”.
